In patent US6486198B1, “Compounds and methods for the treatment of post traumatic stress disorder” (priority 1999, dated 2002):

Legend:
PTSD symptoms (PCL-C) = assay: PTSD Checklist-Civilian Version (PCL-C) self-report scale at baseline and 4 weeks after starting topiramate; format: in vivo, human; details: 17 patients
Protocol: (§1) Topiramate was added naturalistically to existing pharmacotherapy (see Table 1 for concomitant medications at start of trial), starting at 25 mglday and increasing whenever possible by 25 to 50 mg/day every 3 to 4 days to clinical response. Target symptoms were DSM-IV PTSD criterion B symptoms of nightmares (N =24) and intrusions (intrusive recollections/flashbacks, N=35) involving re-experiencing of traumas. Definitions of improvement, as assessed from patient self-report, included “partial response” as “definite reduction in intensity and frequency of nightmares or intrusions”, and “full response” as “complete cessation of nightmares and intrusions for a sustained period”. Following the seminal observations, in order to systematically identify responsive symptoms, the next 17 patients completed a self-report scale, the PTSD Checklist—Civilian Version (PCL-C)15, at baseline and at 4 weeks after starting topiramate. The patients were instructed to complete the PCL-C for experiences corresponding to traumas consistent with DSM-IV criterion A for PTSD. Paired ttest scores for the PCL-C were calculated with Jandel SigmaStat® v. 2.0.
Response was also assessed in 17 patients who completed the PCL-C prior to topiramate therapy and at Week 4 of treatment: mean total PCL-C scores were 60±10.4 at baseline and 39±10.5 at Week 4 (instrument range: 17 to 85, threshold for active PTSD=[…], paired t-test). Adjusting the baseline score by subtracting by 17 to set the score for no PTSD symptoms to zero, there was a 48% reduction (59.8 to 38.8)/(59.8-17) in total score. Subscale score reductions were similar for criterion B (re-experiencing), criterion C (avoidance), and criterion D (hyperarousal) symptoms: 60%, 49%, and 42%, respectively.

[1] = system: patients meeting DSM-IV criteria for chronic PTSD; assay: Discontinuation, side effects and tolerability in the PTSD patient study; format: in vivo, human
From the text: Thirty five (35) patients meeting DSM-IV criteria for chronic post-traumatic stress disorder (PTSD) were selected for a study of the effects of topiramate administration. Of these, […] had non-hallucinatory PTSD and 6 hallucinatory PTSD. The group with hallucinatory PTSD experienced auditory and/or visual hallucinations containing content specifically associated with identified traumatic events. Whether these were PTSD “flashbacks” or psychotic experiences were at times difficult to ascertain due to fluctuations in reality testing the hallucinations. For this reason, prior to being screened for PTSD, some patients had received psychiatric diagnoses of psychotic disorders despite meeting full diagnostic criteria for PTSD.
as §1
Thirteen patients eventually discontinued treatment: 9 due to side effects (urticaria [N=1], eating cessation [N=2], ocular and limb paresthesias [N=1], severe headaches [N=1], overstimulation/panic [N=2], emergent suicidal ideation [N=1], and memory concerns [N=1]) and 4 for other reasons (patient choice [N=1], lack of relapse upon medication interruption [N=2], lack of efficacy [N=1]). Five of the discontinuers had experienced full symptom remission prior to discontinuation and 3 additional patients reported partial response.
Discontinuation due to medication-associated side effects, such as nausea and memory concerns, may have been due to the presence of other medications, to medication interactions, or to individual variation in time needed to accommodate to initial side effects. Subsequent to discontinuation of topiramate, the patient who experienced urticaria continued to complain of unrelated episodes of urticaria. […] When they occurred, side effects were easily managed by dosage reduction or a brief hiatus in administration.

[2] = system: simple and complex partial seizures and secondarily generalized seizures; details: cited from earlier work
kindled epilepsy = details: in vivo; cited from earlier work

For CC1(C)O[C@@H]2[C@@H](CO[C@@]3(COS(N)(=O)=O)OC(C)(C)O[C@@H]23)O1 [Topiramate, 2,3:4,5-bis-O-(1-methylethylidene)-β-D-fructopyranose sulfamate], the “PCL-C subscale score reduction, criterion B (re-experiencing)” value (PTSD symptoms (PCL-C); baseline vs Week 4) was 60%, the “PCL-C subscale score reduction, criterion C (avoidance)” value (PTSD symptoms (PCL-C); baseline vs Week 4) was 49% and the “PCL-C subscale score reduction, criterion D (hyperarousal)” value (PTSD symptoms (PCL-C); baseline vs Week 4) was 42%. The “Reduction in total PCL-C score (baseline adjusted by subtracting 17)” value (PTSD symptoms (PCL-C); baseline vs Week 4) was 48%, the “Mean total PCL-C score at Week 4” value (PTSD symptoms (PCL-C); baseline 60±10.4, instrument range 17 to 85, threshold for active PTSD=50) was 39±10.5 and the “Safety in the study” value ([1]; PTSD patients) was “posed no safety issues”. The Tolerability ([1]; PTSD population) was “appeared well tolerated”, the “Patients discontinued due to side effects” value ([1]; of 35 patients) was 9 and the “Patients who eventually discontinued treatment” value ([1]; of 35 patients) was “Thirteen”. The “Additional discontinuers reporting partial response” value ([1]; of thirteen discontinuers) was 3 patients, the “Discontinuers with full symptom remission prior to discontinuation” value ([1]; of thirteen discontinuers) was “Five” and the “Efficacy in treatment of seizure types” value ([2]; adults and children) was “efficacy in the treatment of a broad range of seizure types”. For the same compound, the “Efficacy in clinical trials of human epilepsy” value ([2]; simple and complex partial seizures and secondarily generalized seizures) was “effective as adjunctive therapy or as monotherapy” and the “Seizure block in animal model of kindled epilepsy” value (kindled epilepsy) was “effectively block seizures”.
